Data reported in patent US10548828B2, “Use of 3,6-anhydro-L-galactose for preventing dental caries” (Korea University Research and Business Foundation, priority 2015, dated 2020).

What was measured:
Streptococcus mutans [1] = experiment: Colony formation of Streptococcus mutans on solid minimal medium, single carbon source; assay type: cell-based, Streptococcus mutans ATCC 25175; conditions: 10 g/L as single carbon source, 30 h
Method: Strains used in the present experiment are Streptococcus mutans ATCC 25175, S. oralis, and S. sanguinis. Representatively, Streptococcus mutans ATCC 25175 was pre-cultured in a brain-heart infusion (BHI) medium for 12 hours, and was washed twice with a 2 mM potassium phosphate buffer, and then was subjected to main culture in a minimal medium prepared with reference to the previously reported document (Fujiwara et al (1978) Arch Oral Biol. 23, 601-602) at 37° C. and 180 rpm. The composition of the minimal medium includes, in 5 mL of a 50 mM Tris-HCl buffer (pH 7.4), 10 mg of L-glutamic acid, 1 mg of cysteine hydrochloride, 4.5 mg of L-leucine, 5 mg of ammonium chloride, 17.5 mg of potassium hydrogen phosphate, 7.5 mg of potassium dihydrogen phosphate, 21 mg of a carbonate, 6 mg of magnesium sulfate heptahydrate, 0.1 mg of manganese chloride tetrahydrate, 3 mg of sodium pyruvate, 5 μg of riboflavin, 2.5 μg of thiamine hydrochloride, 0.5 μg of biotin, 5 μg of nicotinic acid, 0.5 μg of p-aminobenzoic acid, 2.5 μg of calcium pantothenate, and 5 μg of pyridoxine hydrochloride. To verify an effect of inhibiting the growth of Streptococcus mutans under a single carbon source condition, Streptococcus mutans was cultured in a solid minimal medium and a liquid minimal medium that contained 10 g/L of each of 3,6-anhydro-L-galactose, glucose, and xylitol. […]

Streptococcus mutans [2] = experiment: Growth of Streptococcus mutans in liquid minimal medium, single carbon source (absorbance 600 nm); assay type: cell-based, Streptococcus mutans ATCC 25175; conditions: 10 g/L single carbon source, 20 h after entering a stationary phase
Method: Strains used in the present experiment are Streptococcus mutans ATCC 25175, S. oralis, and S. sanguinis. Representatively, Streptococcus mutans ATCC 25175 was pre-cultured in a brain-heart infusion (BHI) medium for 12 hours, and was washed twice with a 2 mM potassium phosphate buffer, and then was subjected to main culture in a minimal medium prepared with reference to the previously reported document (Fujiwara et al (1978) Arch Oral Biol. 23, 601-602) at 37° C. and 180 rpm. The composition of the minimal medium includes, in 5 mL of a 50 mM Tris-HCl buffer (pH 7.4), 10 mg of L-glutamic acid, 1 mg of cysteine hydrochloride, 4.5 mg of L-leucine, 5 mg of ammonium chloride, 17.5 mg of potassium hydrogen phosphate, 7.5 mg of potassium dihydrogen phosphate, 21 mg of a carbonate, 6 mg of magnesium sulfate heptahydrate, 0.1 mg of manganese chloride tetrahydrate, 3 mg of sodium pyruvate, 5 μg of riboflavin, 2.5 μg of thiamine hydrochloride, 0.5 μg of biotin, 5 μg of nicotinic acid, 0.5 μg of p-aminobenzoic acid, 2.5 μg of calcium pantothenate, and 5 μg of pyridoxine hydrochloride. […] The bacteria were main-cultured using the method of Example 5 for 35 h, and a degree of the cell growth was measured by measuring the absorbance of a culture at a wavelength of 600 nm every 5 h.

Streptococcus mutans [3] = experiment: Growth inhibition under mixed carbon source condition (10 g/L glucose), 96-well plate; assay type: cell-based, Streptococcus mutans ATCC 25175
Method: (§1) Strains used in the present experiment are Streptococcus mutans ATCC 25175, S. oralis, and S. sanguinis. Representatively, Streptococcus mutans ATCC 25175 was pre-cultured in a brain-heart infusion (BHI) medium for 12 hours, and was washed twice with a 2 mM potassium phosphate buffer, and then was subjected to main culture in a minimal medium prepared with reference to the previously reported document (Fujiwara et al (1978) Arch Oral Biol. 23, 601-602) at 37° C. and 180 rpm. […] Small amounts of Streptococcus mutans, S. oralis, and S. sanguinis were cultured, using the method of Example 5, in 200 μl of a liquid minimal medium containing 10 g/L of glucose and 3,6-anhydro-L-galactose or xylitol according to concentration in a 96-well plate, and growth inhibitory effects thereof were observed by measuring absorbance at a wavelength of 600 nm according to time. […]

S. sanguinis = experiment: as above; assay type: cell-based; conditions: 60 g/L added to 10 g/L glucose
Method: as §1

Streptococcus mutans [4] = experiment: Growth and acid production under mixed carbon source condition, 5 mL culture, absorbance and HPLC; assay type: cell-based, Streptococcus mutans ATCC 25175
Method: Strains used in the present experiment are Streptococcus mutans ATCC 25175, S. oralis, and S. sanguinis. Representatively, Streptococcus mutans ATCC 25175 was pre-cultured in a brain-heart infusion (BHI) medium for 12 hours, and was washed twice with a 2 mM potassium phosphate buffer, and then was subjected to main culture in a minimal medium prepared with reference to the previously reported document (Fujiwara et al (1978) Arch Oral Biol. 23, 601-602) at 37° C. and 180 rpm. The composition of the minimal medium includes, in 5 mL of a 50 mM Tris-HCl buffer (pH 7.4), 10 mg of L-glutamic acid, 1 mg of cysteine hydrochloride, 4.5 mg of L-leucine, 5 mg of ammonium chloride, 17.5 mg of potassium hydrogen phosphate, 7.5 mg of potassium dihydrogen phosphate, 21 mg of a carbonate, 6 mg of magnesium sulfate heptahydrate, 0.1 mg of manganese chloride tetrahydrate, 3 mg of sodium pyruvate, 5 μg of riboflavin, 2.5 μg of thiamine hydrochloride, 0.5 μg of biotin, 5 μg of nicotinic acid, 0.5 μg of p-aminobenzoic acid, 2.5 μg of calcium pantothenate, and 5 μg of pyridoxine hydrochloride. To verify an effect of 3,6-anhydro-L-galactose or xylitol on the growth of Streptococcus mutans and acid production, Streptococcus mutans bacteria were cultured, using the method of Example 5, in 5 mL of a liquid minimal medium containing 10 g/L of glucose and 0 g/L, 5 g/L or 10 g/L of 3,6-anhydro-L-galactose or 20 g/L or 40 g/L of xylitol for 35 h, and cell growth was measured using absorbance every 5 hours and concentrations of an extracellular substrate and acid production were measured by HPLC. A glucose only-added condition was set as a negative control, and a glucose- and xylitol-added condition was set as a positive control. A column used for analysis was Aminex HPX-87H, and 0.01 N of sulfuric acid as a mobile phase was flowed at a rate of 0.5 mL/min and 65° C.

S. mutans [5] = experiment: Inhibitory effects under sucrose, fructose or maltose conditions, 96-well plate; assay type: cell-based, Streptococcus mutans; conditions: for non-growth rate: 40 g/L added
Method: Strains used in the present experiment are Streptococcus mutans ATCC 25175, S. oralis, and S. sanguinis. Representatively, Streptococcus mutans ATCC 25175 was pre-cultured in a brain-heart infusion (BHI) medium for 12 hours, and was washed twice with a 2 mM potassium phosphate buffer, and then was subjected to main culture in a minimal medium prepared with reference to the previously reported document (Fujiwara et al (1978) Arch Oral Biol. 23, 601-602) at 37° C. and 180 rpm. The composition of the minimal medium includes, in 5 mL of a 50 mM Tris-HCl buffer (pH 7.4), 10 mg of L-glutamic acid, 1 mg of cysteine hydrochloride, 4.5 mg of L-leucine, 5 mg of ammonium chloride, 17.5 mg of potassium hydrogen phosphate, 7.5 mg of potassium dihydrogen phosphate, 21 mg of a carbonate, 6 mg of magnesium sulfate heptahydrate, 0.1 mg of manganese chloride tetrahydrate, 3 mg of sodium pyruvate, 5 μg of riboflavin, 2.5 μg of thiamine hydrochloride, 0.5 μg of biotin, 5 μg of nicotinic acid, 0.5 μg of p-aminobenzoic acid, 2.5 μg of calcium pantothenate, and 5 μg of pyridoxine hydrochloride. Under conditions of fermentable sugars other than glucose, for example, sucrose, fructose, and maltose, inhibitory effects of AHG and xylitol on S. mutans were investigated. An experiment was carried out in a 96-well plate containing 0 g/L to 10 g/L of AHG or 0 g/L to 40 g/L of xylitol in a specified minimal medium containing 10 g/L of each of sucrose, fructose, and maltose.

S. mutans [6] = conditions: background statement; cited from earlier work

SMILES: OC[C@@H](O)[C@H](O)[C@@H](O)CO [xylitol]
- formation of colonies compared to the glucose condition (Streptococcus mutans [1]): inhibited
- dry cell weight (DCW) of Streptococcus mutans (Streptococcus mutans [2]): 1.46 g/L
- growth of Streptococcus mutans, concentration dependence (Streptococcus mutans [3]; 0-60 g/L added to 10 g/L glucose): inhibited as the treated concentration of xylitol was increased
- growth of Streptococcus mutans (Streptococcus mutans [3]; 40 g/L added to 10 g/L glucose): considerable cell growth was observed
- inhibitory effect on S. sanguinis (S. sanguinis): strong inhibitory effect
- concentration of produced acetic acid (Streptococcus mutans [4]; 20 g/L in 10 g/L glucose): 0.55 g/L
- concentration of produced lactic acid (Streptococcus mutans [4]; 20 g/L in 10 g/L glucose): 3.67 g/L
- final dry cell weight (Streptococcus mutans [4]; 20 g/L in 10 g/L glucose): 1.42 g/L
- glucose consumed (Streptococcus mutans [4]; 20 g/L in 10 g/L glucose): 5.28 g/L
- non-growth rate (Streptococcus mutans [4]; 20 g/L in 10 g/L glucose): 0.087 h⁻¹
- concentration of consumed glucose (Streptococcus mutans [4]; 40 g/L in 10 g/L glucose): 5.42 g/L
- concentration of produced acetic acid (Streptococcus mutans [4]; 40 g/L in 10 g/L glucose): 0.55 g/L
- concentration of produced lactic acid (Streptococcus mutans [4]; 40 g/L in 10 g/L glucose): 3.67 g/L
- inhibition of growth of Streptococcus mutans and acid production (Streptococcus mutans [4]; 40 g/L in 10 g/L glucose): did not completely inhibit
- lag phase (Streptococcus mutans [4]; 40 g/L in 10 g/L glucose, compared with 20 g/L): longer
- use as a carbon source / fermentation by Streptococcus mutans (Streptococcus mutans [4]; in 10 g/L glucose): non-fermentation properties
- concentration of the added sugar during culture (Streptococcus mutans [4]; in 10 g/L glucose, 35 h culture): constantly maintained
- non-growth rate (S. mutans [5]; 10 g/L fructose): 0.085 h⁻¹
- non-growth rate (S. mutans [5]; 10 g/L maltose): 0.045 h⁻¹
- cell growth of S. mutans, concentration dependence (S. mutans [5]; 10 g/L sucrose, 0-40 g/L added): decreased as the concentration of xylitol was increased
- non-growth rate (S. mutans [5]; 10 g/L sucrose): 0.061 h⁻¹
- cell growth of S. mutans (S. mutans [5]; 10 g/L sucrose, 40 g/L added (maximum concentration)): did not completely inhibit
- concentration at which the growth of S. mutans can be inhibited (S. mutans [6]): ≥ 25 g/L
